Measured values from patent US20100099756A1, “USES OF INCENSOLE, INCENSOLE ACETATE AND DERIVATIVES THEREOF” (YISSUM RESEARCH DEVELOPMENT COMPANY OF THE HEBREW …, priority 2006, published 2010).

How the values were obtained:
TRPV3 = biological target: T1, TRPV3 (Mus musculus, UniProt Q8K424); assay: Elevated plus maze in WT and TRPV3−/− mice; assay type: in vivo, C57BL/6 mice; design: from tissue; host or cells: whole animal, wild type C57BL/6 female mice (TRPV3 KO as control); settings: 75 mg/kg
T1 sequence (Q8K424 1-791): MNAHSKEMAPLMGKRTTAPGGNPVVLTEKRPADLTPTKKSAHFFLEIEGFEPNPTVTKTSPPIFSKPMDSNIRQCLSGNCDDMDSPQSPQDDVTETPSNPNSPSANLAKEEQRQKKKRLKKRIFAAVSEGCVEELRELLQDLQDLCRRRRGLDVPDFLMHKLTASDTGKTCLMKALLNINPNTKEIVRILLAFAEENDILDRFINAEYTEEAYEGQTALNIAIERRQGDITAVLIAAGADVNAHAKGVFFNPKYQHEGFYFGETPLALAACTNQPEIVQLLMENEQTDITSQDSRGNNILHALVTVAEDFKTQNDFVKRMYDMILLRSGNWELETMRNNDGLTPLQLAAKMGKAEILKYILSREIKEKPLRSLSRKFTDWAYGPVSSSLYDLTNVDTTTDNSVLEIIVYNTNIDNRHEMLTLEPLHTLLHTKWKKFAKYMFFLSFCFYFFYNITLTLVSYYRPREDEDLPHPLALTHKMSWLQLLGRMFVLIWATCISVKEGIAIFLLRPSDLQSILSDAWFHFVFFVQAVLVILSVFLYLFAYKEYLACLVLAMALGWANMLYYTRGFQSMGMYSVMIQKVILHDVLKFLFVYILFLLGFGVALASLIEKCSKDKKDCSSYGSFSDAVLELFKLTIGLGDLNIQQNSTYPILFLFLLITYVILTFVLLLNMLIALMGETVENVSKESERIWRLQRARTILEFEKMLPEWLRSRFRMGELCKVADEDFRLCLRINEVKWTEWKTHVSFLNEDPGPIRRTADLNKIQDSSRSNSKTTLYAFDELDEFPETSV
Experimental: Wild type and TRPV3^−/− mice (18-20 weeks old) were injected with vehicle (isopropanol:emulphor:saline=1:1:18) or IA (75 mg/kg). 30 min later they were tested in a, the elevated plus maze (5 min), followed by b, 9 min exposure to the Porsolt forced-swimming test. […] Data are presented as means±SEM; n=4-5. * p<0.05, compared to WT-Vehicle-injected mice (Bonferroni post hoc test). ** p<0.01, compared to WT-Vehicle-injected mice (Bonferroni post hoc test).
Mice were placed in the central platform (10×10 cm) between the open (10×45 cm) and enclosed (10×45×40 cm) arms of a plus maze. The number of entries and the time spent in each of the arms was recorded. As described by others (Crawley, 2000; Treit and Menard, 1998), an ‘anti-anxiety’ effect was calculated both as the ratio of entries onto the open arms to total arm entries, and as the % time on the open arms proportional to the time in the closed arms. Mice (female Sabra strain, aged 3.5-4.5 months old) were injected intraperitoneally with 10, 30 or 50 mg/kg of incensole acetate or with vehicle. Each dose was administered to 5 mice. Fifty min after injection the mice were tested in the plus-maze for […] effects. Desipramine (5 mg/kg) was injected to a separate group of mice as a positive control. One-way Anova indicated significant effects (F=8.9, df=4.27, P<0.01). […] Data are presented as means±SEM. DMI=desipramine […]

COX-2 = COX-2 production in LPS-stimulated RAW 264.7 cells; assay type: cell-based, mice; settings: 60 μM, P<0.001
Experimental: (A(1)) Representative Western Blot bands of Cox2 are shown with tubulin as reference. (A(2)) COX-2 levels were measured in RAW 264.7 cells incubated for 24 hrs. with LPS in the presence or in the absence of IA (60 μM/ml); **, p<0.001. (B) Murine peritoneal macrophages were activated by LPS (1 μg/ml for 24 hrs.) in absence of IA or in the presence of IA at indicated concentrations. NO generation was determined by measuring the nitrite accumulated in the supernatants; **, p<0.001. (C) Generation of ROS by RAW 264.7 macrophages (5×10^5 cells in 0.5 ml Hanks' balanced salt solution) was measured by chemiluminescence. Cells were pre-incubated with various doses of IA for 24 hrs before luminol (10 μl) and zymosan (30 μl) were added to the tubes; *, p<0.05; **, p<0.01; ***, p<0.001
COX-2 Production. RAW 264.7 cells were treated with subtoxic concentrations (confirmed by MTT colorimetric assay) of incensole acetate (10-20 μg/ml, dissolved in ethanol and further diluted in medium) and incubated with lipopolysaccharide (LPS, E. coli 1 μg/ml for 24 hs, Sigma, Israel) for 16-24 hrs. […]
Proteins were extracted from cells in NP-40 lysis buffer (50 mM Tris/HCl pH 7.5, 150 mM NaCl, 0.1% SDS, 1% NP-40, 10 mM EDTA, 1 mM phenylmethylsulfonylfluoride (PMSF), and 10 mM DTT). Total protein concentration was determined using the Bradford method and the lysates were analyzed by Western blotting.

General toxicity in mice = assay type: in vivo; settings: single dose 150 mg/kg and 30 mg/kg 3 times a week for a month
TNF-α and IL-1β mRNA = assay: IL-1β and TNFα mRNA expression after CHI (real-time PCR); assay type: in vivo, mice; settings: 3 hours after CHI, 50 mg/kg, relative to β-actin, P<0.05
Experimental: IL-1β and TNFα mRNA levels were quantified 3 hours post-injury by real time polymarerase chain reaction. β-actin was used as endogenous control. *p<0.05 vs. vehicle, as determined by student's t-tests.
The mRNA levels of these cytokines were quantified at 3 hours after CHI using real-time PCR.

CC(=O)OC1CC/C(C)=C/CC/C(C)=C/CC2(C(C)C)CCC1(C)O2 (stereo not drawn) [IA, incensole acetate]
time on the open arms, TRPV3−/− mice (TRPV3; TRPV3−/− mice, IA vs vehicle): spent identical time on the open arms
time on the open arms, WT mice (TRPV3; WT mice, 30 min after injection): potent anxiolytic-like effect
COX-2 production (COX-2): inhibited
weight loss (General toxicity in mice): No weight loss was observed
IL-1β mRNA expression (TNF-α and IL-1β mRNA): significantly inhibited mRNA expression
TNF-α mRNA expression (TNF-α and IL-1β mRNA): significantly inhibited mRNA expression
